What was measured:
β2AR(1.19H4) = β2AR(1.19H4) (Homo sapiens, UniProt P07550, INS20HHHH); test: Fluorescence Ca2+ imaging; type: cell-based; details: 1 µM MAC(β2AR, O4), 5 µM U73122
M1R(1.18H4) = biological target: T1, M1R(1.18H4) (Homo sapiens, UniProt P11229); type: cell-based; details: CHO cells, 1 μM Ni–NTA
T1 sequence (P11229 1-460): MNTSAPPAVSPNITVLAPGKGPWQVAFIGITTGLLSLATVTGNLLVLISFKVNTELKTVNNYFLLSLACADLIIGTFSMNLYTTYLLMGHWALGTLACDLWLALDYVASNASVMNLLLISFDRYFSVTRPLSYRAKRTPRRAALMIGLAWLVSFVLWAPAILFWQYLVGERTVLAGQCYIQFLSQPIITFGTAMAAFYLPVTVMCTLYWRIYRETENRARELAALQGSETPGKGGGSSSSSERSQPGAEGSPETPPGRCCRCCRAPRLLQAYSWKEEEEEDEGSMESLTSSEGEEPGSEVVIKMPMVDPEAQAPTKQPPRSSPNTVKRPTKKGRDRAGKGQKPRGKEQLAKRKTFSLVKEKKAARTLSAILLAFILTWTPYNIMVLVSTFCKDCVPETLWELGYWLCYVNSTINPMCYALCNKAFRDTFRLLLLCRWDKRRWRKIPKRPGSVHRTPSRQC

SMILES	MAC(β2AR, O4)-induced Ca2+ response in presence of PLC inhibitor (β2AR(1.19H4))	concentration–response on addition of Ni–NTA (M1R(1.18H4))
COc1ccc2c(c1)CC[C@@H]1[C@@H]2CC[C@]2(C)[C@@H](NCCCCCCN3C(=O)C=CC3=O)CC[C@@H]12 [U73122]	no response was detected	
C[N+](C)(C)CC#CCOC1=NOCC1 [iperoxo]		unaffected
